# Results from patent publication US10323036B2 (Nimbus Lakshmi, Inc., priority 2016, dated 2019).
# Like-named read-outs stand apart in the source and are kept apart here.
# Target: human TYK2 (JH2domain-pseudokinase) (Homo sapiens (Human), UniProt P29597)
# Test: TYK2 JH2 Domain Binding Assay (KINOMEscan)
# Settings: read-out: JH2 Kd
# [1] = Table 5, Tyk2 JH2 Domain Binding Assay
# human TYK2 (JH2domain-pseudokinase), sequence (P29597 556-888): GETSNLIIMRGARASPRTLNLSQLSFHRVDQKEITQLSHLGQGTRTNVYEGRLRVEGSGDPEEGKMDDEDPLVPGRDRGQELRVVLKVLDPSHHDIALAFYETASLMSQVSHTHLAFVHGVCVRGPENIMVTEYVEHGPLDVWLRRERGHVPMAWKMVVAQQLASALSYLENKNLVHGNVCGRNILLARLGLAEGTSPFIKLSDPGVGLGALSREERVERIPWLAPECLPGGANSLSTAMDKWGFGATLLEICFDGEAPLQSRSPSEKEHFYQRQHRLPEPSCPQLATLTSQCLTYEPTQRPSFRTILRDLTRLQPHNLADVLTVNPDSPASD
SMILES,"Kd (Table 4, JH2 binding assay)",Kd [1]
"COc1c(Nc2cc(Nc3cccc(N4CC(OC)C4)n3)nc3[nH]n(C)c(=O)c23)cccc1-c1nnn(C)n1 [Compound I-63, 4-((2-methoxy-3-(2-methyl-2H-tetrazol-5-yl)phenyl)amino)-6-((6-(3-methoxyazetidin-1-yl)pyridin-2-yl)amino)-2-methyl-1,2-dihydro-3H-pyrazolo[3,4-b]pyridin-3-one]",0.1 to 0.5 nM,–
"COc1c(F)cccc1Nc1cc(Nc2ccn(C)n2)nc2[nH]n(C)c(=O)c12 [Compound I-78, 4-((3-fluoro-2-methoxyphenyl)amino)-2-methyl-6-((1-methyl-1H-pyrazol-3-yl)amino)-1,2-dihydro-3H-pyrazolo[3,4-b]pyridin-3-one]",1 to 10 nM,–
"COc1c(F)cccc1Nc1cc(Nc2ccc(C#N)cn2)nc2[nH]n(C)c(=O)c12 [Compound I-79, 6-((4-((3-fluoro-2-methoxyphenyl)amino)-2-methyl-3-oxo-2,3-dihydro-1H-pyrazolo[3,4-b]pyridin-6-yl)amino)nicotinonitrile]",1 to 10 nM,–
"COCc1ccc(Nc2cc(Nc3ccc(C)c(C(F)(F)F)n3)nc3[nH]n(C)c(=O)c23)c(OC)c1 [Compound I-93, 4-((2-methoxy-4-(methoxymethyl)phenyl)amino)-2-methyl-6-((5-methyl-6-(trifluoromethyl)pyridin-2-yl)amino)-1,2-dihydro-3H-pyrazolo[3,4-b]pyridin-3-one]",1 to 10 nM,–
"COCc1ccc(Nc2cc(Nc3cccc(C(F)(F)F)n3)nc3[nH]n(C)c(=O)c23)c(OC)c1 [Compound I-67, 4-((2-methoxy-4-(methoxymethyl)phenyl)amino)-2-methyl-6-((6-(trifluoromethyl)pyridin-2-yl)amino)-1,2-dihydro-3H-pyrazolo[3,4-b]pyridin-3-one]",1 to 10 nM,–
COc1c(Nc2cc(NC(=O)C3CC3)nc3[nH]n(C)c(=O)c23)cccc1-c1nnnn1C [Compound I-52],1 to 10 nM,–
"COc1c(Nc2cc(Nc3ccccn3)nc3[nH]n(C)c(=O)c23)cccc1-c1nnn(C)n1 [Compound I-4, 4-((2-methoxy-3-(2-methyl-2H-tetrazol-5-yl)phenyl)amino)-2-methyl-6-(pyridin-2-ylamino)-1,2-dihydro-3H-pyrazolo[3,4-b]pyridin-3-one]",0.1 to 0.5 nM,–
"CN(c1ccccc1Nc1cc(Nc2cc3c(cn2)COC3)nc2[nH]n(C)c(=O)c12)S(C)(=O)=O [Compound I-227, N-(2-((6-((1,3-dihydrofuro[3,4-c]pyridin-6-yl)amino)-2-methyl-3-oxo-2,3-dihydro-1H-pyrazolo[3,4-b]pyridin-4-yl)amino)phenyl)-N-methylmethanesulfonamide]",< 0.1 nM,–
"COc1c(Cl)cccc1Nc1cc(Nc2ccc(N3CCCC3=O)c(C#N)n2)nc2[nH]n(C)c(=O)c12 [Compound I-134, 6-((4-((3-chloro-2-methoxyphenyl)amino)-2-methyl-3-oxo-2,3-dihydro-1H-pyrazolo[3,4-]pyridin-6-yl)amino)-3-(2-oxopyrrolidin-1-yl)picolinonitrile]",0.1 to 0.5 nM,–
CN(c1cc(C2CCCOC2)ccc1Nc1cc(NC(=O)C2CC2)nc2[nH]n(C)c(=O)c12)S(C)(=O)=O (stereo not shown) [Compound I-240],0.1 to 0.5 nM,–
"COCc1ccc(Nc2cc(NC(=O)C3CC3)nc3[nH]n(C)c(=O)c23)c(OC)c1 [Compound I-45, N-(4-((2-methoxy-4-(methoxymethyl)phenyl)amino)-2-methyl-3-oxo-2,3-dihydro-1H-pyrazolo[3,4-b]pyridin-6-yl)cyclopropanecarboxamide]",1 to 10 nM,–
Cn1[nH]c2nc(NC(=O)C3CC3)cc(Nc3ccc(C(=O)N4CCCC4)cc3OC(F)F)c2c1=O [Compound I-151],> 10 nM,–
"COc1c(Nc2cc(Nc3ccc(N4CCOCC4)cn3)nc3[nH]n(C)c(=O)c23)cccc1-c1nnn(C)n1 [Compound I-7, 4-((2-methoxy-3-(2-methyl-2H-tetrazol-5-yl)phenyl)amino)-2-methyl-6-((5-morpholinopyridin-2-yl)amino)-1,2-dihydro-3H-pyrazolo[3,4-b]pyridin-3-one]",1 to 10 nM,–
COc1c(Nc2cc(NC(=O)C3CC3)nc3[nH]n(C)c(=O)c23)cccc1-c1noc(C)n1 [Compound I-131],0.1 to 0.5 nM,–
"COc1c(Cl)cccc1Nc1cc(Nc2cccc(C#N)n2)nc2[nH]n(C)c(=O)c12 [Compound I-99, 6-((4-((3-chloro-2-methoxyphenyl)amino)-2-methyl-3-oxo-2,3-dihydro-1H-pyrazolo[3,4-b]pyridin-6-yl)amino)picolinonitrile]",0.5 to 1 nM,–
"COc1c(Nc2cc(Nc3ccc(C)nn3)nc3[nH]n(C)c(=O)c23)cccc1-c1ccn(C)n1 [Compound I-121, 4-((2-methoxy-3-(1-methyl-1H-pyrazol-3-yl)phenyl)amino)-2-methyl-6-((6-methylpyridazin-3-yl)amino)-1,2-dihydro-3H-pyrazolo[3,4-b]pyridin-3-one]",0.5 to 1 nM,–
CN(c1cc(C2CC2)ccc1Nc1cc(NC(=O)C2CC2)nc2[nH]n(C)c(=O)c12)S(C)(=O)=O [Compound I-232],< 0.1 nM,–

SMILES,"Kd (Table 4, JH2 binding assay)",Kd [1]
"COc1c(Nc2cc(Nc3cc(C)ccn3)nc3[nH]n(C)c(=O)c23)cccc1-c1ncc(C)s1 [Compound I-47, 4-((2-methoxy-3-(5-methylthiazol-2-yl)phenyl)amino)-2-methyl-6-((4-methylpyridin-2-yl)amino)-1,2-dihydro-3H-pyrazolo[3,4-b]pyridin-3-one]",> 10 nM,–
Cn1[nH]c2nc(NC(=O)[C@@H]3CC3(F)F)cc(Nc3ccc(C4CC4)cc3S(C)(=O)=O)c2c1=O [Compound I-237],1 to 10 nM,–
COc1c(C#N)cccc1Nc1cc(Nc2cc(C)nc(C)n2)nc2[nH]n(C)c(=O)c12 [Compound I-39],> 10 nM,–
"COc1c(Nc2cc(Nc3cc(C)ccn3)nc3[nH]n(C)c(=O)c23)cccc1-c1ncn(C)n1 [Compound I-18, 4-((2-methoxy-3-(1-methyl-1H-1,2,4-triazol-3-yl)phenyl)amino)-2-methyl-6-((4-methylpyridin-2-yl)amino)-1,2-dihydro-3H-pyrazolo[3,4-b]pyridin-3-one]",0.1 to 0.5 nM,–
"COc1c(Cl)cccc1Nc1cc(Nc2ccc(C(F)F)c(C#N)n2)nc2[nH]n(C)c(=O)c12 [Compound I-156, 6-((4-((3-chloro-2-methoxyphenyl)amino)-2-methyl-3-oxo-2,3-dihydro-1H-pyrazolo[3,4-b]pyridin-6-yl)amino)-3-(difluoromethyl)picolinonitrile]",> 10 nM,–
"Cn1[nH]c2nc(Nc3cncc(C#N)n3)cc(Nc3ccc(C4CC4)cc3S(C)(=O)=O)c2c1=O [Compound I-212, 6-((4-((4-cyclopropyl-2-(methylsulfonyl)phenyl)amino)-2-methyl-3-oxo-2,3-dihydro-1H-pyrazolo[3,4-b]pyridin-6-yl)amino)pyrazine-2-carbonitrile]",> 10 nM,–
"COc1c(Nc2cc(N)nc3[nH]n(C)c(=O)c23)cccc1C(=O)O [Compound I-241, 3-((6-amino-2-methyl-3-oxo-2,3-dihydro-1H-pyrazolo[3,4-b]pyridin-4-yl)amino)-2-methoxybenzoic acid]",> 10 nM,–
"Cn1[nH]c2nc(Nc3ccccn3)cc(Nc3ccccc3S(C)(=O)=O)c2c1=O [Compound I-142, 2-methyl-4-((2-(methylsulfonyl)phenyl)amino)-6-(pyridin-2-ylamino)-1,2-dihydro-3H-pyrazolo[3,4-b]pyridin-3-one]",0.1 to 0.5 nM,–
"COc1c(Nc2cc(Nc3ccc(C#N)cn3)nc3[nH]n(C)c(=O)c23)cccc1-c1nnn(C)n1 [Compound I-12, 6-((4-((2-methoxy-3-(2-methyl-2H-tetrazol-5-yl)phenyl)amino)-2-methyl-3-oxo-2,3-dihydro-1H-pyrazolo[3,4-b]pyridin-6-yl)amino)nicotinonitrile]",< 0.1 nM,–
"COc1c(Nc2cc(NC(=O)C3CC3)ncc2-c2ncc(CO)s2)cccc1-c1ncn(C)n1 [VIII-6, N-(5-(5-(hydroxymethyl)thiazol-2-yl)-4-((2-methoxy-3-(1-methyl-1H-1,2,4-triazol-3-yl)phenyl)amino)pyridin-2-yl)cyclopropanecarboxamide]",–,10 to 100 nM
"COc1c(Nc2cc(NC(=O)C3CC3)ncc2-c2nnc(C)s2)cccc1-c1ncn(C)n1 [VIII-7, N-(4-((2-methoxy-3-(1-methyl-1H-1,2,4-triazol-3-yl)phenyl)amino)-5-(5-methyl-1,3,4-thiadiazol-2-yl)pyridin-2-yl)cyclopropanecarboxamide]",–,1 to 10 nM
"COc1cc(C(=O)N2CCC2)ccc1Nc1cc(NC(=O)C2CC2)nc2[nH]n(C)c(=O)c12 [Compound I-82, N-(4-((4-(azetidine-1-carbonyl)-2-methoxyphenyl)amino)-2-methyl-3-oxo-2,3-dihydro-1H-pyrazolo[3,4-b]pyridin-6-yl)cyclopropanecarboxamide]",0.1 to 0.5 nM,–
"CCc1nn(-c2cccc(-c3nnn(C)n3)c2OC)c2cc(NC(=O)C3CC3)ncc12 [XVI-4, N-(3-ethyl-1-(2-methoxy-3-(2-methyl-2H-tetrazol-5-yl)phenyl)-1H-pyrazolo[4,3-c]pyridin-6-yl)cyclopropanecarboxamide]",–,0.1 to 1 nM
"COc1c(Nc2cc(Nc3cc(C)nc(C)n3)nc3[nH]n(C)c(=O)c23)cccc1C(N)=O [Compound I-103, 3-((6-((2,6-dimethylpyrimidin-4-yl)amino)-2-methyl-3-oxo-2,3-dihydro-1H-pyrazolo[3,4-b]pyridin-4-yl)amino)-2-methoxybenzamide]",> 10 nM,–
"COc1c(Cl)cccc1Nc1cc(Nc2ccc(N3CCOCC3)cn2)nc2[nH]n(C)c(=O)c12 [Compound I-115, 4-((3-chloro-2-methoxyphenyl)amino)-2-methyl-6-((5-morpholinopyridin-2-yl)amino)-1,2-dihydro-3H-pyrazolo[3,4-b]pyridin-3-one]",1 to 10 nM,–
"COc1c(Nc2cc(Nc3ccc(C)nn3)ncc2-c2ncc(Cl)s2)cccc1-c1nnn(C)n1 [VIII-16, 5-(5-chlorothiazol-2-yl)-N4-(2-methoxy-3-(2-methyl-2H-tetrazol-5-yl)phenyl)-N2-(6-methylpyridazin-3-yl)pyridine-2,4-diamine]",–,0.1 to 1 nM
"COc1c(Nc2cc(NC(=O)C3CC3)ncc2-c2nnc(CO)o2)cccc1-c1ncn(C)n1 [VIII-5, N-(5-(5-(hydroxymethyl)-1,3,4-oxadiazol-2-yl)-4-((2-methoxy-3-(1-methyl-1H-1,2,4-triazol-3-yl)phenyl)amino)pyridin-2-yl)cyclopropanecarboxamide]",–,1 to 10 nM
